# In patent US20240391948A1, “NOVEL COMPOUND THAT INHIBITS TNF-ALPHA GENERATION AND INFLAMMASOME ACTIVITY AND PREPARATION METHOD THEREFOR” (SHAPERON INC., priority 2021, published 2024):
# pIC50: −log10 of the molar value.
# Key:
# Format in all cases: cell-based
# [1] = tested on: J774A.1 (Mouse BALB/c monocyte macrophage cell line) cells; experiment: LPS+ATP-induced IL-1β secretion inhibition in J774A.1 cells; details: J774.A1, 1 μM compound, graded compared to taurodeoxycholic acid (positive control), read-out: IL-1β production inhibition grade
# Protocol: (§1) To evaluate anti-inflammatory efficacy, an inflammatory response was induced in J774A.1 (Mouse BALB/c monocyte macrophage cell line) cells derived from mouse macrophages by LPS (lipopolysaccharide) and LPS+ATP (adenosine triphosphate), and the efficacy of taurine-bile acid derivatives to inhibit the production of inflammatory cytokines (IL-1β, TNF-α) was measured. After treating J774A.1 cells with 1 μM of a taurine-bile acid derivative, the degree to which the secretion of TNF-α among cytokines was suppressed was measured in the experimental group in which an inflammatory response was induced by LPS, and the extent to which IL-1β secretion among cytokines was suppressed was measured in the experimental group in which an inflammatory response was induced with LPS+ATP. The ability of taurine-bile acid derivatives to inhibit cytokine production was graded compared to taurodeoxycholic acid, a positive control. The grading criteria are A: over 100%, B: over 50% and under 100%, C: between 20% and under 50%, and D: under 20%.
# [2] = tested on: J774A.1 (Mouse BALB/c monocyte macrophage cell line) cells; experiment: LPS-induced TNF-α secretion inhibition in J774A.1 cells; details: J774.A1, 1 μM compound, graded compared to taurodeoxycholic acid (positive control), read-out: TNF-α production inhibition grade
# Protocol: as §1
# [3] = tested on: U937 cells (human monocytic cell line); experiment: BzATP-induced IL-1β secretion inhibition in PMA-differentiated U937 cells; details: U-937, U937 cells differentiated with PMA, read-out: IL-1β production inhibition grade (IC50)
# Protocol: (§2) To evaluate anti-inflammatory efficacy, U937 cells (human monocytic cell line) were differentiated into macrophages using PMA (phorbol 12-myristate 13-acetate) and then induced an inflammatory response with Pam2CSK4 (Pam2CysSerLys4) or BzATP (2′(3′)—O-(4-Benzoylbenzoyl)adenosine 5′-triphosphate), the efficacy of taurine-bile acid derivatives in suppressing inflammatory cytokine (IL-1β, TNF-α) production was measured.
# (§3) Using PMA, U937 cells were differentiated into macrophages, and the extent of TNF-α secretion inhibition was measured in an experimental group where taurine-bile acid derivatives was treated, followed by induction of inflammatory response with Pam2CSK4, and in the experimental group in which an inflammatory response was induced with BzATP, the extent to which IL-1β secretion among cytokines was suppressed was measured.
# (§4) The ability of taurine-bile acid derivatives to inhibit cytokine production was expressed in terms of IC50 (μM) values. The standards for TNF α inhibition ability are A: less than 0.5, B: 0.5 to less than 1.0, C: 1.0 to less than 2.0, D: 2.0 or more, and the IL-1β inhibition ability grade standards are A: less than 0.05, B: 0.05 to less than 0.10, C: 0.10 or more and less than 0.20, D: 0.20 or more.
# [4] = tested on: U937 cells (human monocytic cell line); experiment: Pam2CSK4-induced TNF-α secretion inhibition in PMA-differentiated U937 cells; details: U-937, U937 cells differentiated with PMA, read-out: TNF-α production inhibition grade (IC50)
# Protocol: as §2, §3, §4
SMILES,inhibition at 1 µM [1],inhibition at 1 µM [2],pIC50 [3],pIC50 [4]
CC(C)[C@H](CS(=O)(=O)O)NC(=O)CC[C@@H](C)[C@H]1CC[C@H]2[C@@H]3CC[C@@H]4CC(=O)CC[C@]4(C)[C@H]3CC[C@]12C [NC30017],< 20%,< 20%,≤ 6.70,≤ 5.70
C[C@H](CCC(=O)NCCCS(=O)(=O)O)[C@H]1CC[C@H]2[C@@H]3CC[C@@H]4C[C@H](O)CC[C@]4(C)[C@H]3CC[C@]12C [NC10014],< 20%,< 20%,> 7.30,5.70 to 6.00
C[C@H](CCC(=O)N[C@H](CS(=O)(=O)O)c1ccccc1)[C@H]1CC[C@H]2[C@@H]3CC[C@@H]4CC(=O)CC[C@]4(C)[C@H]3CC[C@]12C [NC30018],< 20%,< 20%,≤ 6.70,≤ 5.70
C[C@H](CCC(=O)N[C@@H](C)CS(=O)(=O)O)[C@H]1CC[C@H]2[C@@H]3CC[C@@H]4C[C@H](O)CC[C@]4(C)[C@H]3CC[C@]12C [NC10084],< 20%,< 20%,≤ 6.70,> 6.30
CC[C@H]1[C@@H](O)[C@@H]2[C@H](C[C@H](O)[C@]3(C)[C@@H]([C@H](C)CCC(=O)N(CCS(=O)(=O)O)C(C)C)CC[C@@H]23)[C@@]2(C)CC[C@@H](O)C[C@@H]12 [NC50007],> 100%,< 20%,7.00 to 7.30,5.70 to 6.00
C[C@H](CCC(=O)N[C@@H](CO)CS(=O)(=O)O)[C@H]1CC[C@H]2[C@@H]3CC[C@@H]4C[C@H](O)CC[C@]4(C)[C@H]3CC[C@]12C [NC10080],> 100%,< 20%,6.70 to 7.00,6.00 to 6.30
C[C@H](CCC(=O)N1CCN(S(=O)(=O)O)CC1)[C@H]1CC[C@H]2[C@@H]3CC[C@@H]4C[C@H](O)CC[C@]4(C)[C@H]3C[C@H](O)[C@]12C [NC10009],> 100%,> 100%,> 7.30,> 6.30
CC[C@H]1[C@@H](O)[C@@H]2[C@H](C[C@H](O)[C@]3(C)[C@@H]([C@H](C)CCC(=O)N4CCC[C@H]4CS(=O)(=O)O)CC[C@@H]23)[C@@]2(C)CC[C@@H](O)C[C@@H]12 [NC50021],20 to 50%,< 20%,≤ 6.70,6.00 to 6.30
CC[C@H]1[C@@H](O)[C@@H]2[C@H](CC[C@]3(C)[C@@H]([C@H](C)CCC(=O)N[C@@H](CC(C)C)CS(=O)(=O)O)CC[C@@H]23)[C@@]2(C)CC[C@@H](O)C[C@@H]12 [NC40030],< 20%,< 20%,≤ 6.70,5.70 to 6.00
CC(C)C[C@H](CS(=O)(=O)O)NC(=O)CC[C@@H](C)[C@H]1CC[C@H]2[C@@H]3CC[C@@H]4C[C@H](O)CC[C@]4(C)[C@H]3C[C@H](O)[C@]12C [NC10046],50 to 100%,< 20%,6.70 to 7.00,> 6.30
CC[C@H]1[C@@H](O)[C@@H]2[C@H](CC[C@]3(C)[C@@H]([C@H](C)CCC(=O)N(CCS(=O)(=O)O)C4CCOCC4)CC[C@@H]23)[C@@]2(C)CC[C@@H](O)C[C@@H]12 [NC40008],> 100%,> 100%,> 7.30,> 6.30
C[C@H](CCC(=O)N1CC[C@@H](S(=O)(=O)O)C1)[C@H]1CC[C@H]2[C@@H]3[C@H](O)C[C@@H]4C[C@H](O)CC[C@]4(C)[C@H]3C[C@H](O)[C@]12C [NC20034],< 20%,< 20%,7.00 to 7.30,5.70 to 6.00
CC[C@H]1[C@@H](O)[C@@H]2[C@H](C[C@H](O)[C@]3(C)[C@@H]([C@H](C)CCC(=O)N(CCS(=O)(=O)O)C4CCOCC4)CC[C@@H]23)[C@@]2(C)CC[C@@H](O)C[C@@H]12 [NC50008],> 100%,< 20%,> 7.30,6.00 to 6.30
C[C@H](CCC(=O)N(CCS(=O)(=O)O)C1CCOCC1)[C@H]1CC[C@H]2[C@@H]3CC[C@@H]4CC(=O)CC[C@]4(C)[C@H]3CC[C@]12C [NC30008],50 to 100%,< 20%,≤ 6.70,6.00 to 6.30
CC(C)C[C@@H](CS(=O)(=O)O)NC(=O)CC[C@@H](C)[C@H]1CC[C@H]2[C@@H]3CC[C@@H]4C[C@H](O)CC[C@]4(C)[C@H]3CC[C@]12C [NC10086],< 20%,< 20%,≤ 6.70,> 6.30
CC[C@H]1[C@@H](O)[C@@H]2[C@H](CC[C@]3(C)[C@@H]([C@H](C)CCC(=O)N[C@@H](Cc4ccccc4)CS(=O)(=O)O)CC[C@@H]23)[C@@]2(C)CC[C@@H](O)C[C@@H]12 [NC40014],> 100%,< 20%,> 7.30,6.00 to 6.30
C[C@H](CCC(=O)NCCOS(=O)(=O)O)[C@H]1CC[C@H]2[C@@H]3CC[C@@H]4C[C@H](O)CC[C@]4(C)[C@H]3C[C@H](O)[C@]12C [NC10007],50 to 100%,50 to 100%,> 7.30,≤ 5.70
C[C@H](CCC(=O)N1CCC[C@@H](S(=O)(=O)O)C1)[C@H]1CC[C@H]2[C@@H]3CC[C@@H]4C[C@H](O)CC[C@]4(C)[C@H]3CC[C@]12C [NC10061],> 100%,< 20%,6.70 to 7.00,6.00 to 6.30
C[C@H](CCC(=O)NCS(=O)(=O)O)[C@H]1CC[C@H]2[C@@H]3CC[C@@H]4C[C@H](O)CC[C@]4(C)[C@H]3C[C@H](O)[C@]12C [NC10001],> 100%,< 20%,> 7.30,≤ 5.70
C[C@H](CCC(=O)N(CCS(=O)(=O)O)c1ccccc1)[C@H]1CC[C@H]2[C@@H]3CC[C@@H]4C[C@H](O)CC[C@]4(C)[C@H]3C[C@H](O)[C@]12C [NC10052],50 to 100%,50 to 100%,7.00 to 7.30,5.70 to 6.00
C[C@H](CCC(=O)N[C@H](CS(=O)(=O)O)c1ccccc1)[C@H]1CC[C@H]2[C@@H]3CC[C@@H]4C[C@H](O)CC[C@]4(C)[C@H]3CC[C@]12C [NC10069],> 100%,< 20%,> 7.30,> 6.30
C[C@H](CCC(=O)N(CCO)CCS(=O)(=O)O)[C@H]1CC[C@H]2[C@@H]3[C@H](O)C[C@@H]4C[C@H](O)CC[C@]4(C)[C@H]3C[C@H](O)[C@]12C [NC20006],> 100%,< 20%,> 7.30,5.70 to 6.00
C[C@H](CCC(=O)N[C@@H](CO)CS(=O)(=O)O)[C@H]1CC[C@H]2[C@@H]3CC[C@@H]4C[C@H](O)CC[C@]4(C)[C@H]3C[C@H](O)[C@]12C [NC10040],< 20%,< 20%,≤ 6.70,5.70 to 6.00
C[C@H](CCC(=O)N[C@H]1CCCC[C@H]1S(=O)(=O)O)[C@H]1CC[C@H]2[C@@H]3CC[C@@H]4C[C@H](O)CC[C@]4(C)[C@H]3CC[C@]12C [NC10083],> 100%,> 100%,> 7.30,6.00 to 6.30
CC(C)[C@H](CS(=O)(=O)O)NC(=O)CC[C@@H](C)[C@H]1CC[C@H]2[C@@H]3CC[C@@H]4C[C@H](O)CC[C@]4(C)[C@H]3CC[C@]12C [NC10073],50 to 100%,< 20%,7.00 to 7.30,> 6.30
CC[C@H]1[C@@H](O)[C@@H]2[C@H](CC[C@]3(C)[C@@H]([C@H](C)CCC(=O)N(CCN(C)C)CCS(=O)(=O)O)CC[C@@H]23)[C@@]2(C)CC[C@@H](O)C[C@@H]12 [NC40035],> 100%,< 20%,7.00 to 7.30,> 6.30
